The source made the active and inactive calls. The rule behind the calls is not given here.
Molecular target: Chaperone protein DnaK (Escherichia coli (strain K12)) (UniProt P0A6Y8)
Experiment: E. coli DnaK SBD ligand binding – biophysical, NMR, chaperone (AID 1033)
Conditions: Purified DnaK SBD

Sequence of Chaperone protein DnaK (Escherichia coli (strain K12)) (P0A6Y8 whole entry, looked up): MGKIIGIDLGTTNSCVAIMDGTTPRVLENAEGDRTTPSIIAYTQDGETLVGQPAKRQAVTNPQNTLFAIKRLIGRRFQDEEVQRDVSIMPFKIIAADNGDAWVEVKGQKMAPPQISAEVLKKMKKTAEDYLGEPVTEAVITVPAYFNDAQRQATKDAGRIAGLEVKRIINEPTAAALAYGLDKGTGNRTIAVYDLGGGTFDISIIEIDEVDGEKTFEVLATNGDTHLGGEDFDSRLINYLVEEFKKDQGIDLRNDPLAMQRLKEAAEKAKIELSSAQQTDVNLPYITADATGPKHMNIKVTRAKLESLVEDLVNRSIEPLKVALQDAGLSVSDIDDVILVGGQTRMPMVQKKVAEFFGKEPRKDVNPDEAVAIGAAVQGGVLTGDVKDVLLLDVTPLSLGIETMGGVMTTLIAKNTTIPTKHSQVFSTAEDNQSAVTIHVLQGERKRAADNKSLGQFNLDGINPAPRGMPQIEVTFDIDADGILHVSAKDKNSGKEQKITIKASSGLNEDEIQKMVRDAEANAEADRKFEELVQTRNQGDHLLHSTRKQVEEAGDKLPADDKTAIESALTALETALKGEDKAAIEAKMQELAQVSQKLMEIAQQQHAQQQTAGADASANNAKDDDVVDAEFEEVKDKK

| Structure (SMILES) | Kd |
| --- | --- |
| NC(=O)CSc1nc2ncnc(N)c2[nH]1 | > 4 mM (inactive) |
| COc1ccc2nc(SCC(N)=O)[nH]c2c1 | > 4 mM (inactive) |
| COc1cccc(OC)c1C(=O)N1CCOCC1 | > 4 mM (inactive) |
| O=C1CCC(=O)N1c1ccc(F)cc1 | > 4 mM (inactive) |
| CC(=O)O[C@H]1C[C@@H](OC(C)=O)C(C)(C)C2C[C@@H](OC(C)=O)[C@]3(C)C(CC[C@@]4(C)[C@H](c5ccoc5)C(=O)[C@H]5O[C@]543)[C@]21C (stereo partly drawn) | > 4 mM (inactive) |
| O=C(O)/C=C/C=C/c1ccccc1 | > 4 mM (inactive) |
| O=C(c1ccco1)N1CCNCC1 | > 4 mM (inactive) |
| O=C(CN1C(=O)c2cccc3cccc(c23)C1=O)NO | > 4 mM (inactive) |
| Cc1ccccc1NC(=O)CSc1ccnc(=O)[nH]1 | > 4 mM (inactive) |
| Cc1ccc2cc(CO)ccc2n1 | > 4 mM (inactive) |
| O=C(Nn1cnnc1)c1cccc(C(F)(F)F)c1 | > 4 mM (inactive) |
| O=C(O)c1ccc(-n2cccc2)cc1 | > 4 mM (inactive) |
| NC(=O)C12CC3CC(C1)C(=O)C(C3)C2 | > 4 mM (inactive) |
| OC[C@H]1O[C@@H](n2cnc3c(NCc4ccco4)ncnc32)[C@H](O)[C@@H]1O | > 4 mM (inactive) |
| O=c1[nH]c(NCCO)nnc1Cc1ccccc1 | > 4 mM (inactive) |
| Cc1cc(C(=O)Nc2ccc3c(c2)OCCO3)c(C)o1 | > 4 mM (inactive) |
| CSc1ncc(CO)n1Cc1ccccc1 | > 4 mM (inactive) |
| CN(C)c1nc(N2CCOCC2)nc(N2CCOCC2)n1 | > 4 mM (inactive) |
| CN1CCOc2cc(C(=O)O)ccc21 | > 4 mM (inactive) |
| CNS(=O)(=O)c1cc(OC)ccc1OC | > 4 mM (inactive) |
| NC(=O)CSCc1ccc(Br)cc1 | > 4 mM (inactive) |
| Cc1ccccc1OCC(=O)O | > 4 mM (inactive) |
| CC(C)(C)Cc1nc(-c2ccccn2)no1 | > 4 mM (inactive) |

| Structure (SMILES) | Kd |
| --- | --- |
| COc1ccc(/C=C2/N=C(N)SC2=O)cc1 | > 4 mM (inactive) |
| NCc1csc2ccccc12 | > 4 mM (inactive) |
| Cn1nc(-c2ccccc2)cc1N | > 4 mM (inactive) |
| COc1ccc(-c2oc3ccccc3c(=O)c2O)cc1OC | > 4 mM (inactive) |
| CCCCCCCCCCCC[C@H](C(=O)O)[C@@H](C)C(=O)O | > 4 mM (inactive) |
| Cn1nnc2cc(C(=O)Nc3cccnc3)ccc21 | > 4 mM (inactive) |
| CC(=O)c1ccc(NS(=O)(=O)c2cccc(C)c2)cc1 | > 4 mM (inactive) |
| O=C1CCCN1c1ccc(S(=O)O)cc1 | > 4 mM (inactive) |
| Cc1occc1C(=O)NC1CCN(C)CC1 | > 4 mM (inactive) |
| CCCOn1nnnc1-c1ccccc1 | > 4 mM (inactive) |
| CS(=O)(=O)Nc1cc2c3c(c1)CCN3C(=O)CC2 | > 4 mM (inactive) |
| N#Cc1nc(-c2ccccc2Cl)oc1N1CCOCC1 | > 4 mM (inactive) |
| Cc1nc2nc(-c3ccco3)nn2c(C)c1Cl | > 4 mM (inactive) |
| C[n+]1cccc(C(=O)[O-])c1 | > 4 mM (inactive) |
| O=NN1C(=O)c2ccccc2C1=O | > 4 mM (inactive) |
| COC[C@]12CN(C=O)C3[C@@H]4[C@H](OC)C1[C@]3(C1CC3(O)C(OC)C(O)C4(OC(C)=O)C1C3OC(=O)c1ccccc1)[C@@H](OC)C[C@H]2O (stereo partly drawn) | > 4 mM (inactive) |
| Cc1ccc(SCc2cc(=O)n3[nH]c(C)nc3n2)cc1 | > 4 mM (inactive) |
| Nc1cccnc1N1CCOCC1 | > 4 mM (inactive) |
| COc1cc(C)c(S(=O)(=O)N2CCN(C)CC2)cc1C | > 4 mM (inactive) |
| Cc1ccc2c(c1)CCCN2C(=O)c1ccncc1 | > 4 mM (inactive) |
| CCn1cnc2scc(-c3ccccc3)c2c1=O | > 4 mM (inactive) |
| O=S1(=O)NC(=NCc2ccco2)c2ccccc21 | > 4 mM (inactive) |
| CCOC(=O)C1CCC(=O)c2cccn21 (stereo not drawn) | > 4 mM (inactive) |

| Structure (SMILES) | Kd |
| --- | --- |
| Cc1cc(F)c(F)c(C(=O)NC2CC2)c1Cl | > 4 mM (inactive) |
| COC(=O)C1=CO[C@@H](O[C@@H]2O[C@H](CO)[C@@H](O)[C@H](O)[C@H]2O)[C@@H]2[C@@H](C)[C@@H](O)C[C@H]12 | > 4 mM (inactive) |
| O=C(O)C1C(=O)NCC1c1ccccc1 (stereo not drawn) | > 4 mM (inactive) |
| CS(=O)(=O)c1nncn1-c1ccccc1 | > 4 mM (inactive) |
| O=C(O)c1ccc(CN2CCOCC2)cc1 | > 4 mM (inactive) |
| CC(=O)c1c(C)n([O-])c2ccccc2[n+]1=O | > 4 mM (inactive) |
| Oc1cc(O)c2c(c1)O[C@H](c1ccc(O)c(O)c1)[C@@H](O)C2 | > 4 mM (inactive) |
| OC1CSc2ncnn2C1 (stereo not drawn) | > 4 mM (inactive) |
| O=C(NCc1n[nH]c(=O)c2ccccc12)C1CC1 | > 4 mM (inactive) |
| NS(=O)(=O)c1ccc(NC(=O)c2ccccc2F)cc1 | > 4 mM (inactive) |
| O=C(O)C(CO)c1ccccc1 (stereo not drawn) | > 4 mM (inactive) |
| CC(=O)Nc1cnn(Cc2ccc(Br)cc2)c1 | > 4 mM (inactive) |
| N#CCCn1ccnc1-c1ccccc1 | > 4 mM (inactive) |
| CC1(C)C2CC(=O)[C@]3(C)C(CC[C@@]4(C)[C@H](c5ccoc5)OC(=O)C5OC543)[C@@]2(C)[C@@H](O)C[C@H]1O (stereo partly drawn) | > 4 mM (inactive) |
| COc1cc2c3cc1Oc1c(OC)c(OC)cc4c1[C@@H](Cc1cccc(c1)Oc1ccc(c(O)c1)C[C@@H]3N(C)CC2)N(C)CC4 | > 4 mM (inactive) |
| NC(=O)c1cccc2c(=O)oc3ccccc3c12 | > 4 mM (inactive) |
| O=C1NC(=O)/C(=C/c2ccc(O)cc2)N1 | > 4 mM (inactive) |
| CS(=O)(=O)c1ccc(N)cc1 | > 4 mM (inactive) |
| Cc1cc(C)cc(C(=O)n2cnnc2N)c1 | > 4 mM (inactive) |
| CCC1(CC)C(=O)N=C(N)NC1=O | > 4 mM (inactive) |
| CN1CCN(c2nc3c(c(=O)[nH]2)CCCC3)CC1 | > 4 mM (inactive) |
| O=C(NCO)c1ccccc1Cl | > 4 mM (inactive) |
| COc1cc(/C=C2/NC(=S)NC2=O)cc(Cl)c1O | > 4 mM (inactive) |

| Structure (SMILES) | Kd |
| --- | --- |
| COC(=O)c1c(C)cc(OC(=O)c2c(C)cc(O)c(C=O)c2O)c(C)c1O | > 4 mM (inactive) |
| COc1ccc([C@H]2COc3c(ccc(O)c3OC)C2)c(OC)c1O | > 4 mM (inactive) |
| CCCCCCCCCCCCCCC(C(=O)O)C(O)(CC(=O)OC)C(=O)O (stereo not drawn) | > 4 mM (inactive) |
| CC(=O)OCc1cc(=O)n(C)c(=O)n1C | > 4 mM (inactive) |
| CSc1nc(C)cc(-n2ccc(=O)[nH]c2=O)n1 | > 4 mM (inactive) |
| CC1=C(CCC(=O)O)c2cc3nc(cc4[nH]c(cc5[nH]c(cc1n2)c(C)c5C(C)O)c(C)c4C(C)O)C(C)=C3CCC(=O)O (stereo not drawn) | > 4 mM (inactive) |
| CC(=O)c1c(O)c(C)c(O)c2c1OC1=CC(=O)C(C(C)=O)C(=O)C12C (stereo not drawn) | > 4 mM (inactive) |
| C[C@]12CC(=O)C3C(CC[C@@H]4C[C@H](O)CC[C@]34C)C1CC[C@]2(O)C(=O)CO (stereo partly drawn) | > 4 mM (inactive) |
| Cc1cc(=O)oc2cc(O)c(O)cc12 | > 4 mM (inactive) |
| Cc1onc(-c2c(Cl)cccc2Cl)c1C(N)=O | > 4 mM (inactive) |
| CCCc1ncc(C(O)c2cccc3ccccc23)n1C (stereo not drawn) | > 4 mM (inactive) |
| CSc1ccccc1NC(=O)c1ccc(C)o1 | > 4 mM (inactive) |
| Nc1nnc(Cc2ccc(Cl)cc2)s1 | > 4 mM (inactive) |
| Cc1cc(N)n(C2CCOC(C)(C)C2)n1 (stereo not drawn) | > 4 mM (inactive) |
| O=C(O)c1[nH]nc2c1COc1ccccc1-2 | > 4 mM (inactive) |
| C(=N\c1nccs1)/c1cccnc1 | > 4 mM (inactive) |
| CC(=O)Nc1nc(C)nc(-c2ccccc2)c1C(C)=O | > 4 mM (inactive) |
| CCOC(=O)c1cnc2cc(C)nn2c1C | > 4 mM (inactive) |
| CCOc1ccc(C(=O)c2ccc(OC)c(O)c2O)cc1 | > 4 mM (inactive) |
| Cc1ccsc1/C=c1\sc2ncnn2c1=O | > 4 mM (inactive) |
| CCC(=O)NC(=S)Nc1ccc(N2CCOCC2)cc1 | > 4 mM (inactive) |
| COC1C(O)C(O[C@H]2CC[C@]3(C=O)C4C(CC[C@]3(O)C2)[C@@]2(O)CC[C@H](C3=CC(=O)OC3)[C@@]2(C)C[C@H]4OC(C)=O)OC(C)C1OC(C)=O (stereo partly drawn) | > 4 mM (inactive) |
| C[C@@H]1C(=O)OC2[C@H](O)C34[C@@H]5OC(=O)[C@@]3(O[C@@H]3OC(=O)[C@H](O)[C@@]34[C@H](C(C)(C)C)[C@H]5O)[C@]21O (stereo partly drawn) | > 4 mM (inactive) |

| Structure (SMILES) | Kd |
| --- | --- |
| O=C(Nc1cccc2cccnc12)c1cccnc1 | > 4 mM (inactive) |
| O=P1(O)c2ccccc2Nc2ccccc21 | > 4 mM (inactive) |
| C/C=C/C(=O)Nc1ccc(NC(C)=O)cc1 | > 4 mM (inactive) |
| CC1=CC(=O)C2C(C)(C)CCC[C@]2(C)[C@@]1(O)CCc1ccoc1 (stereo partly drawn) | > 4 mM (inactive) |
| CCC(C)C(=O)O[C@H]1[C@H](O)C2C(CN3CC(C)CCC3[C@@]2(C)O)C2C[C@]34O[C@]5(O)C(OC(=O)C(C)(O)CC)CC[C@@]3(C)C5C(OC(C)=O)[C@@H](OC(C)=O)C4[C@@]21O (stereo partly drawn) | > 4 mM (inactive) |
| CC(=O)OCC(OC(C)=O)C(OC(C)=O)C(OC(C)=O)C(OC(C)=O)C(COC(C)=O)OC(C)=O (stereo not drawn) | > 4 mM (inactive) |
| COc1ccccc1NC(C)=O | > 4 mM (inactive) |
| COCC(=O)Nc1cccc2ccccc12 | > 4 mM (inactive) |
| Cc1nn(-c2ccccc2)nc1C(N)=O | > 4 mM (inactive) |
| O=C(O)CS(=O)(=O)c1ccccc1 | > 4 mM (inactive) |
| CC(=O)c1c(C)nc(-c2cccs2)n1O | > 4 mM (inactive) |
| COC(=O)c1ccc2ncccc2c1 | > 4 mM (inactive) |
| CN=C(C)c1c(O)n(C)c(=S)n(C)c1=O | > 4 mM (inactive) |
| O=c1ccn(Cc2ccccc2)c(=O)n1Cc1ccccc1 | > 4 mM (inactive) |
| Cc1ccc(CNC(=O)c2ccc([N+](=O)[O-])o2)cc1 | < 0.2 mM |
| C=C(C)CSc1nc2nc(C)cc(C)n2n1 | > 4 mM (inactive) |
| Cc1ccc(SCc2nc(-c3ccncc3)no2)cc1 | > 4 mM (inactive) |
| O=[N+]([O-])c1c[n+]([O-])n(-c2ccccc2)n1 | > 4 mM (inactive) |
| Cc1c(C(=O)Nc2ccccn2)oc2ccccc12 | > 4 mM (inactive) |
| COc1c(F)c(F)c(-c2csc(N)n2)c(F)c1F | > 4 mM (inactive) |
| CC(=O)NCC1OCCc2ccccc21 (stereo not drawn) | > 4 mM (inactive) |
